In patent publication US8541210B2, “Producing eicosapentaenoic acid (EPA) from biodiesel-derived crude glycerol” (Virginia Tech Intellectual Properties, Inc., priority 2008, dated 2013):

Columns and labels:
[1] = test system: Pythium irregulare (ATCC 10951); experiment: Growth and EPA production of P. irregulare with glucose, pure glycerol or crude glycerol as carbon source; type: cell-based; conditions: FIG. 1A; substrate around 20 g/L
[2] = test system: P. irregulare; experiment: Effects of methanol on fungal growth; type: cell-based, Pythium irregulare; conditions: 20 g/L pure glycerol spiked with 2, 4, and 8 g/L methanol; filter-sterilised; spores inoculated
From the text: The crude glycerol used in this work contained ˜12% (w/w) methanol. […] To study the “true” effects of methanol on fungal growth and EPA production, we prepared a medium containing 20 g/L pure glycerol spiked with 2, 4, and 8 g/L methanol. The medium was then passed through a 0.2 μm filter before fungal spores were inoculated. […] The result clearly indicated the negative effects of methanol on growth and EPA production of P. irregulare.

Row | Compound | cell growth [1] | growth in methanol-containing medium [2]
1 | OCC(O)CO [Pure glycerol, glycerol] | supported cell growth | –
2 | CO [methanol] | – | did not observe any growth
